Measured values as given in ChEMBL document CHEMBL4699499, “Biochemical, cellular and structural characterization of novel and selective ERK3 inhibitors” (Bioorg Med Chem Lett, 2020).

Legend:
[1] = target: T1, Mitogen-activated protein kinase 6 (Homo sapiens, UniProt Q16659); test: Binding affinity to recombinant wild-type ERK3 (9 to 327 residues) (unknown origin) expressed in Escherichia coli by microscale thermophoresis assay
[2] = target: T1, Mitogen-activated protein kinase 6; test: Binding affinity to LPP-dephosphorylated recombinant wild-type ERK3 (9 to 327 residues) (unknown origin) expressed in Escherichia coli by microscale thermophoresis assay
[3] = target: T1, Mitogen-activated protein kinase 6; test: Binding affinity to recombinant wild-type ERK3 (9 to 327 residues) (unknown origin) expressed in Sf21 insect cells by microscale thermophoresis assay
[4] = target: T1, Mitogen-activated protein kinase 6; test: Binding affinity to wild-type human partial length ERK3 (M1 to P413 residues) expressed in bacterial expression system by kinomescan method

T1 sequence (Q16659 whole entry, the tested form may be a part): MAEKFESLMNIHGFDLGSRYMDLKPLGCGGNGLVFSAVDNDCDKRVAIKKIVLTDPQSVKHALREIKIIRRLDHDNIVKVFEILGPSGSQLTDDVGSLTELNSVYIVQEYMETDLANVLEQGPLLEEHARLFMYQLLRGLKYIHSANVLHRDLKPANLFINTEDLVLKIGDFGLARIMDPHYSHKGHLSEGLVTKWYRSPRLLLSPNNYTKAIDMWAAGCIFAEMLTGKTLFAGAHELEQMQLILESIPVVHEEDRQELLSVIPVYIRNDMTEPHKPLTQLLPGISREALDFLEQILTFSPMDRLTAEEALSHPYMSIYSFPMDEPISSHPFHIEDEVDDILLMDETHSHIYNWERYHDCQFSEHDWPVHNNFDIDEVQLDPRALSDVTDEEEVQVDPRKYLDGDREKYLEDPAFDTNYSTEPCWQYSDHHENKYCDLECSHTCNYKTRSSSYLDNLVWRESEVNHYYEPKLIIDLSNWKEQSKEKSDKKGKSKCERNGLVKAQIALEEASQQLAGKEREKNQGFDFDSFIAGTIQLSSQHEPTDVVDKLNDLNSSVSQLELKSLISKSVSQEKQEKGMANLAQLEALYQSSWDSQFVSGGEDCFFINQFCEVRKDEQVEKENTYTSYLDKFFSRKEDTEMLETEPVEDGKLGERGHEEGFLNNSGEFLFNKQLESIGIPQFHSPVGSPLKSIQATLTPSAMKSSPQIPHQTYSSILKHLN

Kd [1] | Kd [2] | Kd [3] | Kd [4] | Compound
14300 nM |  |  |  | O=C(Nc1ccc2[nH]nc(-c3ccncc3)c2c1)[C@@H]1CCN(CC(=O)N2CCN(c3ccc(-c4ncccn4)cc3)CC2)C1
1300 nM | 1500 nM | 1100 nM | 980 nM | COc1ccc(-n2nnc3cnc(N[C@H]4CC[C@H](C(N)=O)CC4)nc32)cc1
 | > 10000 nM |  |  | Nc1n[nH]c2nnc(-c3c(-c4ccccc4)nn4ccccc34)cc12
